In ChEMBL document CHEMBL1137273, “Xanthine mimetics as potent dipeptidyl peptidase IV inhibitors” (Bioorg Med Chem Lett, 2006):
pIC50, pKi: −log10 of the molar value.

Columns and labels:
Dipeptidyl peptidase 4 [1] = biological target: T1, Dipeptidyl peptidase 4 (Homo sapiens, UniProt P27487); experiment: Inhibition of h-DPPIV
Dipeptidyl peptidase 8 = Dipeptidyl peptidase 8 (Homo sapiens, UniProt Q6V1X1); experiment: Inhibition of h-DPP8
Prolyl endopeptidase = biological target: T2, Prolyl endopeptidase (Homo sapiens, UniProt P48147); experiment: Inhibition of h-POP
T2 sequence (P48147 whole entry): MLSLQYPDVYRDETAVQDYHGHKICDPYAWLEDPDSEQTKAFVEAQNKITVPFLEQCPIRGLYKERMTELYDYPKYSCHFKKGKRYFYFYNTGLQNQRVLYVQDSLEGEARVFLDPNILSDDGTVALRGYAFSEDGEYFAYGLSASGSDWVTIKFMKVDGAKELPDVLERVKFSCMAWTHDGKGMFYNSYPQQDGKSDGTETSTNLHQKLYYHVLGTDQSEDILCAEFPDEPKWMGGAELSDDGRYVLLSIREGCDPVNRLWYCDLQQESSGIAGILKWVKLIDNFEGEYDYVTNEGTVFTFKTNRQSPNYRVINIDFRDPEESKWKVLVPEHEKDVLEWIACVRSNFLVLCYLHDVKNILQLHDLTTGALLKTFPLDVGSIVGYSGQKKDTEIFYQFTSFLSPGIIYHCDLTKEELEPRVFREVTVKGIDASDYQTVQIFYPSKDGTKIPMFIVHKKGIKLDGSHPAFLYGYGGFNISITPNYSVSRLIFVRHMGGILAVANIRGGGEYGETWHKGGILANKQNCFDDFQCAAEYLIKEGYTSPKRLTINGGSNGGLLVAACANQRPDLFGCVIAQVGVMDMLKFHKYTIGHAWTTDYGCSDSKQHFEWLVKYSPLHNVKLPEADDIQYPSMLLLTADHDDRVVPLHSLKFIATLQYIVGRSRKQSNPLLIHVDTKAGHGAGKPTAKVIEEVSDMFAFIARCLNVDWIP

Dipeptidyl peptidase 4 [2] = biological target: T1, Dipeptidyl peptidase 4; experiment: Human DPPIV plasma binding (0% plasma); assay type: cell-free
Dipeptidyl peptidase 9 = Dipeptidyl peptidase 9 (Homo sapiens, UniProt Q86TI2); experiment: Inhibition of h-DPP9
Dipeptidyl peptidase 9, sequence (Q86TI2 whole entry): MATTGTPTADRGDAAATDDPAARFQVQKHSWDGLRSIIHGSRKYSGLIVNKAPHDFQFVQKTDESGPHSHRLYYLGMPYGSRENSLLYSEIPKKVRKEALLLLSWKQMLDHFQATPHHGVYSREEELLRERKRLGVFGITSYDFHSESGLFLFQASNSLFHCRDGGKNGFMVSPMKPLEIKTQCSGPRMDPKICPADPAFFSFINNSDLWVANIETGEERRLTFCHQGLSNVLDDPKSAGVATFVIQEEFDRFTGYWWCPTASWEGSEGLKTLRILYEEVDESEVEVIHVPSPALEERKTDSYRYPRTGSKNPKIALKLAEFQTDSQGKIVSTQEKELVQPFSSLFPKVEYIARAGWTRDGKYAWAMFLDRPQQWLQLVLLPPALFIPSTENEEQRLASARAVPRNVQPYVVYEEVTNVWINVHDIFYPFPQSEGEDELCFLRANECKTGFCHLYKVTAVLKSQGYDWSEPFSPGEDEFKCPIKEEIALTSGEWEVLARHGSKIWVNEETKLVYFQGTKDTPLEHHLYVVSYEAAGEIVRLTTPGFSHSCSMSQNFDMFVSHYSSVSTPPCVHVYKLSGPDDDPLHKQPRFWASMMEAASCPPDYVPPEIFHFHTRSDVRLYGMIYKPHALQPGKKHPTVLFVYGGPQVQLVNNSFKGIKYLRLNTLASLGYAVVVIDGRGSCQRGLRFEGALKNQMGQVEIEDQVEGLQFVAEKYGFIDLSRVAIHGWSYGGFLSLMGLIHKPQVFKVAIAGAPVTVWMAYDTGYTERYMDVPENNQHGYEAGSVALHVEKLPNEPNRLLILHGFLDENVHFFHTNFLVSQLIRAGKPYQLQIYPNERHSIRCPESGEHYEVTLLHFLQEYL

T1 sequence (P27487 whole entry): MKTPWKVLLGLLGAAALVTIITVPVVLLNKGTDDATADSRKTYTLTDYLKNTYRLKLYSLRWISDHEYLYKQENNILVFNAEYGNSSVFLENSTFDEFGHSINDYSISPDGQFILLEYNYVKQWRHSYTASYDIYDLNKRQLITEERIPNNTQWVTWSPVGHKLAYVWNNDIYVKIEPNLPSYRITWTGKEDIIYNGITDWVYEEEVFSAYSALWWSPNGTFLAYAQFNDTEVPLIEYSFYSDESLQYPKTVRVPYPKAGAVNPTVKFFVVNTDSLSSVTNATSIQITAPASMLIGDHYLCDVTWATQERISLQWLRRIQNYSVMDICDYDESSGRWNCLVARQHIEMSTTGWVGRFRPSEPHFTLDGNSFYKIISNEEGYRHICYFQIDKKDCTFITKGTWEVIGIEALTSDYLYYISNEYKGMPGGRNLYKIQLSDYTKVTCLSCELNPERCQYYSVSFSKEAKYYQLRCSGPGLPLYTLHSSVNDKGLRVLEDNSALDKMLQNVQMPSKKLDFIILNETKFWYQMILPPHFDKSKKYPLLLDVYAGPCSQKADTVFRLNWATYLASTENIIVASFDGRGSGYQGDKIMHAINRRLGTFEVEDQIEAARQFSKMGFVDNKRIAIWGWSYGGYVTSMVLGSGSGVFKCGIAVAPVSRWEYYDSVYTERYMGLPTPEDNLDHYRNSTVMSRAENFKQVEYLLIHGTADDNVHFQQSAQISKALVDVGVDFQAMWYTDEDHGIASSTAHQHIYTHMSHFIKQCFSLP
Dipeptidyl peptidase 8, sequence (Q6V1X1 whole entry): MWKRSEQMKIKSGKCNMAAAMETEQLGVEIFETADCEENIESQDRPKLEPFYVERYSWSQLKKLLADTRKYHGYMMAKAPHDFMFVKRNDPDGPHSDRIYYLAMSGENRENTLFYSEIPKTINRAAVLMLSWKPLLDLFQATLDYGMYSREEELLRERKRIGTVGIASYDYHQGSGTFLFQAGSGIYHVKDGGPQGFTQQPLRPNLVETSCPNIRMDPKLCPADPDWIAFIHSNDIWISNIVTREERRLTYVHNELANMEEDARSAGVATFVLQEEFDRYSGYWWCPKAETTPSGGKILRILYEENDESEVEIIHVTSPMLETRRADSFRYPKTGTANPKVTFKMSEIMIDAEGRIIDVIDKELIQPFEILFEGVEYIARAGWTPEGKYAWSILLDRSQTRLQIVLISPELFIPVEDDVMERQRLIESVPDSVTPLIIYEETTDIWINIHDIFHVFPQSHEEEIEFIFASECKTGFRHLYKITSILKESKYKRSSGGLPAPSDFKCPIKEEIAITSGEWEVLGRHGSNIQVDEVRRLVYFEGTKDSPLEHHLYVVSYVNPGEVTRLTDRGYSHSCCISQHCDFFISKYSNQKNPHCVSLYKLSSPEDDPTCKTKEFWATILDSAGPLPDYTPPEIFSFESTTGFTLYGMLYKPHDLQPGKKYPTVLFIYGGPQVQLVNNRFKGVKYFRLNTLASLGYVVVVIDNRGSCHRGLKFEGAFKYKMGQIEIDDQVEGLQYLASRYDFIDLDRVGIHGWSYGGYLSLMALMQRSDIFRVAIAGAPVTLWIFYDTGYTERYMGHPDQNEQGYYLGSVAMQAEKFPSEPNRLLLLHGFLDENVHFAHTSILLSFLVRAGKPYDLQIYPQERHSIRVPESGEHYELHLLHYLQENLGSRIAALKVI

| Structure (SMILES) | pKi (Dipeptidyl peptidase 4 [1]) | pKi (Dipeptidyl peptidase 8) | pKi (Prolyl endopeptidase) | pKi (Dipeptidyl peptidase 4 [2]) | pKi (Dipeptidyl peptidase 9) | pIC50 (Dipeptidyl peptidase 4 [1]) |
| --- | --- | --- | --- | --- | --- | --- |
| Cn1ncc2c(nc(N3CCCC(N)C3)n2Cc2ccccc2C#N)c1=O (stereo not drawn) | 6.59 | – | – | – | – | – |
| Cn1ncc2nc(N3CCCC(N)C3)n(Cc3cccc(CC#N)c3)c2c1=O (stereo not drawn) | 7.96 | < 5.52 | < 4.52 | – | – | – |
| Cn1c(=O)c2nc(N3CCCC(N)C3)n(Cc3ccccc3C#N)c2c(=O)n1C (stereo not drawn) | – | – | < 4.52 | – | – | – |
| Cn1c(=O)c2c(nc(N3CCCC(N)C3)n2Cc2ccccc2C#N)n(C)c1=O (stereo not drawn) | 8.70 | < 4.52 | < 4.52 | 8.70 | – | – |
| CN1C(=O)c2nc(N3CCCC(N)C3)n(Cc3ccccc3C#N)c2C1=O (stereo not drawn) | – | – | < 4.52 | – | < 5.52 | – |
| NC1CCCN(c2nc3c(n2Cc2ccccc2C(F)(F)F)C(=O)c2ccccc2C3=O)C1 (stereo not drawn) | 7.60 | < 4.52 | – | – | < 5.52 | – |
| Cn1ncc2nc(N3CCCC(N)C3)n(Cc3ccccc3C#N)c2c1=O (stereo not drawn) | 8.30 | < 5.52 | < 4.52 | – | – | – |
| CN1C(=O)C=C(N2CCC[C@@H](N)C2)C(Cc2ccccc2C#N)C1=O (stereo partly drawn) | – | – | – | – | – | 8.40 |
